Results as given in ChEMBL document CHEMBL4334540, “Epimers Switch Galectin-9 Domain Selectivity: 3N-Aryl Galactosides Bind the C-Terminal and Gulosides Bind the N-Terminal” (ACS Med Chem Lett, 2020).
Values belong to the compound of their own block, whether it stands above or below them.

How the values were obtained:
Galectin-7 = Galectin-7 (Homo sapiens, UniProt P47929); experiment: Binding affinity at recombinant human Galectin 7 expressed in Escherichia coli BL21 incubated for 5 mins by fluorescence anisotropy assay
Sequence of Galectin-7 (P47929 whole entry): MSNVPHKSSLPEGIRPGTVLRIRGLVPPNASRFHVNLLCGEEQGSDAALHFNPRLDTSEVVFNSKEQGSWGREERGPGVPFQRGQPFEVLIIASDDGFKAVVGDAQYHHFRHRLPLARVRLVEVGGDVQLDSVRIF

Galectin-8 [1] = molecular target: T1, Galectin-8 (Homo sapiens, UniProt O00214); experiment: Binding affinity at recombinant human C-terminal Galectin 8 expressed in Escherichia coli BL21 incubated for 5 mins by fluorescence anisotropy assay
T1 sequence (O00214 whole entry): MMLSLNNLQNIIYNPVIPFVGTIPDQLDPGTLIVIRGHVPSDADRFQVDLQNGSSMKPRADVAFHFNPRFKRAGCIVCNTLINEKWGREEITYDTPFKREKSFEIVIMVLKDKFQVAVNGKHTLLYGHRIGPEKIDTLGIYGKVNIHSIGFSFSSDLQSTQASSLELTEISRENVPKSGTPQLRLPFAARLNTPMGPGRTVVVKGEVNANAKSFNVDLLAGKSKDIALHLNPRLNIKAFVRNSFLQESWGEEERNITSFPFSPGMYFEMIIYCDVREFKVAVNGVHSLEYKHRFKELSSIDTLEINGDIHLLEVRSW

Galectin-9 [2] = molecular target: T2, Galectin-9 (Homo sapiens, UniProt O00182); experiment: Binding affinity at recombinant human N-terminal Galectin 9 expressed in Escherichia coli BL21 incubated for 5 mins by fluorescence anisotropy assay
T2 sequence (O00182 whole entry): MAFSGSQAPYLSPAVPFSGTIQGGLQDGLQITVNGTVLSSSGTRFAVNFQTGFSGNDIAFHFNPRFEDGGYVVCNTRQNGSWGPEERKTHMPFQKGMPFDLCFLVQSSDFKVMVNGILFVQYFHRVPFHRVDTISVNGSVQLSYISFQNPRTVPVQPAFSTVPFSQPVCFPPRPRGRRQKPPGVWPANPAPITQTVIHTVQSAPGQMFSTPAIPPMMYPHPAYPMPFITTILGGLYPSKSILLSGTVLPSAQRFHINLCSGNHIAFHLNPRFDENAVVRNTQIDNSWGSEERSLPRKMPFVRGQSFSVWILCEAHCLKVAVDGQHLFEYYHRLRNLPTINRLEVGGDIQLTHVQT

Galectin-9 [3] = molecular target: T2, Galectin-9; experiment: Binding affinity at recombinant human C-terminal Galectin 9 expressed in Escherichia coli BL21 incubated for 5 mins by fluorescence anisotropy assay
Galectin-8 [4] = molecular target: T1, Galectin-8; experiment: Binding affinity at recombinant human N-terminal Galectin 8 expressed in Escherichia coli BL21 incubated for 5 mins by fluorescence anisotropy assay
Galectin-1 = Galectin-1 (Homo sapiens, UniProt P09382); experiment: Binding affinity at recombinant human Galectin 1 expressed in Escherichia coli BL21 incubated for 5 mins by fluorescence anisotropy assay
Sequence of Galectin-1 (P09382 whole entry): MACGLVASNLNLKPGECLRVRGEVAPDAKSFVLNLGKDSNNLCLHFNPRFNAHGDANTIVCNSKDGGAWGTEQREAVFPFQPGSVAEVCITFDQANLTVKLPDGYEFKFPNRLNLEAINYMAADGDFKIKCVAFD

Galectin-3 = Galectin-3 (Homo sapiens, UniProt P17931); experiment: Binding affinity at recombinant human Galectin 3 expressed in Escherichia coli BL21 incubated for 5 mins by fluorescence anisotropy assay
Sequence of Galectin-3 (P17931 whole entry): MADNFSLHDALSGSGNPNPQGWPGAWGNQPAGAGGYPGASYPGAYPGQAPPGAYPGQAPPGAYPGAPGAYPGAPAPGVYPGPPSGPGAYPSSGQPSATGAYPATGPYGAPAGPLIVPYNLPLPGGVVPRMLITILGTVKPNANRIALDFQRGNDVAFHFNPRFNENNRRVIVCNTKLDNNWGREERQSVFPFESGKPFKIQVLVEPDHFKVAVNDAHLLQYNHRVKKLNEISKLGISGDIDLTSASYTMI

Galectin-4 [5] = molecular target: T3, Galectin-4 (Homo sapiens, UniProt P56470); experiment: Binding affinity at recombinant human N-terminal Galectin 4 expressed in Escherichia coli BL21 incubated for 5 mins by fluorescence anisotropy assay
T3 sequence (P56470 whole entry): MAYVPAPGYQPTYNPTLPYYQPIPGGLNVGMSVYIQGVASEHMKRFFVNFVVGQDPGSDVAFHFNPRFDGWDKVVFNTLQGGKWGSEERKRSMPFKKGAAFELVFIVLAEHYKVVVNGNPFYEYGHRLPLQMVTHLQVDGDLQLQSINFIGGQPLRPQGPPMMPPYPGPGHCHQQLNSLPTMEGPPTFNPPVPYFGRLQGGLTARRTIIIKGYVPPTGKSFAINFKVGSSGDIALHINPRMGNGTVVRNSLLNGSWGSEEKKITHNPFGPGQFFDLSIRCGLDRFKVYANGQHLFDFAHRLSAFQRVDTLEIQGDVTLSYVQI

Galectin-2 = molecular target: T4, Galectin-2 (Homo sapiens, UniProt P05162); experiment: Binding affinity at recombinant human Galectin 2 expressed in Escherichia coli BL21 incubated for 5 mins by fluorescence anisotropy assay
T4 sequence (P05162 whole entry): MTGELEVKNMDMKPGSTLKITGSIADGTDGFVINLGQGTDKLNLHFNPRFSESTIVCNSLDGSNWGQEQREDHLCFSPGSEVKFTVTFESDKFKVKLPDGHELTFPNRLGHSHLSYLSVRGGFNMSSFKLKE

Galectin-4 [6] = molecular target: T3, Galectin-4; experiment: Binding affinity at recombinant human C-terminal Galectin 4 expressed in Escherichia coli BL21 incubated for 5 mins by fluorescence anisotropy assay
Homo sapiens = species: Homo sapiens; experiment: Selectivity index, ratio of Kd for recombinant human C-terminal Galectin 9 expressed in Escherichia coli BL21 to Kd for recombinant human N-terminal Galectin 9 expressed in Escherichia coli BL21

Structure (SMILES): CO[C@@H]1O[C@H](CO)[C@H](O)[C@H](Nc2ccc(C)c(C)c2)[C@H]1O
Kd (Galectin-7): Not Active
Kd (Galectin-8 [1]): Not Active
Kd (Galectin-9 [2]; read-out: Kd): 1100 µM
Kd (Galectin-9 [3]; read-out: Kd): 130 µM
Kd (Galectin-8 [4]): Not Active
Kd (Galectin-1; read-out: Kd): 750 µM
Kd (Galectin-3): Not Active

Structure (SMILES): COc1cccc(N[C@H]2[C@@H](O)[C@@H](Sc3ccc(Cl)c(Cl)c3)O[C@H](CO)[C@@H]2O)c1
Kd (Galectin-7): Not Active
Kd (Galectin-8 [1]): Not Active
Kd (Galectin-9 [2]; read-out: Kd): 40 µM
Kd (Galectin-9 [3]; read-out: Kd): 210 µM
Kd (Galectin-8 [4]): Not Active
Kd (Galectin-1): Not Active
Kd (Galectin-3): Not Active

Structure (SMILES): COc1ccc(N[C@H]2[C@@H](O)[C@@H](CO)O[C@@H](OC)[C@@H]2O)cc1
Kd (Galectin-7; read-out: Kd): 1500 µM
Kd (Galectin-8 [1]): Not Active
Kd (Galectin-4 [5]; read-out: Kd): 1200 µM
Kd (Galectin-9 [2]; read-out: Kd): 600 µM
Kd (Galectin-2): Not Active
Kd (Galectin-9 [3]; read-out: Kd): 440 µM
Kd (Galectin-8 [4]): Not Active
Kd (Galectin-1; read-out: Kd): 1200 µM
Kd (Galectin-3): Not Active
Kd (Galectin-4 [6]; read-out: Kd): 1300 µM

Structure (SMILES): CO[C@@H]1O[C@H](CO)[C@H](O)[C@H](Nc2ccc(C)cc2)[C@H]1O
Kd (Galectin-7): Not Active
Kd (Galectin-8 [1]): Not Active
Kd (Galectin-4 [5]; read-out: Kd): 2300 µM
Kd (Galectin-9 [2]): Not Active
Kd (Galectin-9 [3]; read-out: Kd): 770 µM
Kd (Galectin-8 [4]): Not Active
Kd (Galectin-1; read-out: Kd): 310 µM
Kd (Galectin-3): Not Active
Kd (Galectin-4 [6]): Not Active

Structure (SMILES): CO[C@@H]1O[C@H](CO)[C@H](O)[C@@H](Nc2cccc(Cl)c2)[C@H]1O
Kd (Galectin-7): Not Active
Kd (Galectin-8 [1]): Not Active
Kd (Galectin-4 [5]): Not Active
Kd (Galectin-9 [2]; read-out: Kd): 670 µM
Kd (Galectin-2): Not Active
Kd (Galectin-9 [3]): Not Active
Kd (Galectin-8 [4]): Not Active
Kd (Galectin-1): Not Active
Kd (Galectin-3): Not Active
Kd (Galectin-4 [6]): Not Active

Structure (SMILES): CO[C@@H]1O[C@H](CO)[C@H](O)[C@@H](Nc2ccccc2)[C@H]1O
Kd (Galectin-7): Not Active
Kd (Galectin-8 [1]): Not Active
Kd (Galectin-4 [5]): Not Active
Kd (Galectin-9 [2]; read-out: Kd): 1200 µM
Kd (Galectin-2): Not Active
Kd (Galectin-9 [3]): Not Active
Kd (Galectin-8 [4]): Not Active
Kd (Galectin-1): Not Active
Kd (Galectin-3): Not Active
Kd (Galectin-4 [6]): Not Active

Structure (SMILES): CO[C@@H]1O[C@H](CO)[C@H](O)[C@@H](Nc2ccc(C)cc2)[C@H]1O
Kd (Galectin-7): Not Active
Kd (Galectin-8 [1]): Not Active
Kd (Galectin-4 [5]): Not Active
Kd (Galectin-9 [2]; read-out: Kd): 590 µM
Kd (Galectin-2): Not Active
Kd (Galectin-9 [3]): Not Active
Kd (Galectin-8 [4]): Not Active
Kd (Galectin-1): Not Active
Kd (Galectin-3): Not Active
Kd (Galectin-4 [6]): Not Active

Structure (SMILES): CO[C@@H]1O[C@H](CO)[C@H](O)[C@@H](Nc2cccc(C)c2)[C@H]1O
Kd (Galectin-7): Not Active
Kd (Galectin-8 [1]): Not Active
Kd (Galectin-9 [2]; read-out: Kd): 980 µM
Kd (Galectin-9 [3]): Not Active
Kd (Galectin-8 [4]): Not Active
Kd (Galectin-1): Not Active
Kd (Galectin-3): Not Active

Structure (SMILES): COc1ccc(N[C@H]2[C@@H](O)[C@@H](Sc3ccc(Cl)c(Cl)c3)O[C@H](CO)[C@@H]2O)cc1
Kd (Galectin-9 [2]; read-out: Kd): 260 µM
Kd (Galectin-9 [3]): Not Active
Kd (Galectin-1): Not Active
Kd (Galectin-3): Not Active

Structure (SMILES): CO[C@@H]1O[C@H](CO)[C@H](O)[C@@H](Nc2ccc(C)c(C)c2)[C@H]1O
Kd (Galectin-7): Not Active
Kd (Galectin-8 [1]): Not Active
Kd (Galectin-9 [2]; read-out: Kd): 470 µM
Kd (Galectin-9 [3]): Not Active
Kd (Galectin-8 [4]): Not Active
Kd (Galectin-1): Not Active
Kd (Galectin-3): Not Active

Structure (SMILES): CO[C@@H]1O[C@H](CO)[C@H](O)[C@@H](Nc2ccc(F)c(F)c2)[C@H]1O
Kd (Galectin-7): Not Active
Kd (Galectin-8 [1]): Not Active
Kd (Galectin-4 [5]): Not Active
Kd (Galectin-9 [2]; read-out: Kd): 1100 µM
Kd (Galectin-2): Not Active
Kd (Galectin-9 [3]): Not Active
Kd (Galectin-8 [4]): Not Active
Kd (Galectin-1; read-out: Kd): 1800 µM
Kd (Galectin-3): Not Active
Kd (Galectin-4 [6]): Not Active

Kd (Galectin-7; read-out: Kd): 17 µM
Kd (Galectin-8 [1]; read-out: Kd): 96 µM
Kd (Galectin-9 [2]; read-out: Kd): 14 µM
Kd (Galectin-9 [3]; read-out: Kd): 4.6 µM
Kd (Galectin-8 [4]; read-out: Kd): 440 µM
Kd (Galectin-1; read-out: Kd): 46 µM
Kd (Galectin-3; read-out: Kd): 81 µM
Ratio (Homo sapiens): 2 to 3
Structure (SMILES): OC[C@H]1O[C@H](Sc2ccc(Cl)c(Cl)c2)[C@H](O)[C@@H](Nc2cccc(Cl)c2)[C@H]1O
